Measurements from patent US7919505B2, “Xinafoate salt of a substituted 5-oxazol-2-yl-quinoline compound” (Schering Corporation, priority 2006, dated 2011).
Where a name gives a salt, the structure may show the parent alone.

Columns and labels:
Rat PK assay = type: in vivo, Sprague Dawley rats; settings: Sprague Dawley, plasma, 30 mg/kg, 30 mpk po
Description: Using the above test procedure, the following results were obtained: • tartrate salt: monkey AUC=30 ng.h/mL at 10 mpk po • xinafoate salt: monkey AUC=0 ng.h/mL at 10 mpk po Assay Protocol for Rat PK Assay:
[…] The dose volume was 5 ml/kg dose. Plasma was collected at 0.5, 1, 2, 3, 4, and 6 hr. Blood samples were collected with heparin, and the plasma was stored with EDTA.

inflammatory cells = assay: Allergic Brown-Norway rat assay: inhibition of recruitment of inflammatory cells into the airways (BALF cell counts after OVA challenge); type: in vivo, Brown-Norway rats
Description: Assay Protocol for Allergic Brown-Norway Rats:
Inbred male BN rats weighing 150 to 200 g were obtained from Charles River Laboratory (Wilmington, Mass.). Prior to use, the animals were allowed food and water ad libitum. The test compounds were administered 5 h prior to antigen challenge either by oral or inhalational route, as detailed in the “delivery of test compounds” section.
Sensitization and Antigen Bronchoprovocation
The animals were divided into two main groups viz. an alum group and an antigen group. In the antigen group, animals were sensitized by an intra-peritoneal (i.p.) injection of 1 ml alum-precipitated antigen containing 20 μg of ovalbumin (OVA, grade III; Sigma chemical Co., St Louis, Mo.) and 8 mg of Al(OH)3 suspended in 0.9% saline vehicle. A booster injection of this alum-OVA mixture was given again 7 days later. Animals belonging to the alum group received injections containing alum only. Seven days after the second injection, animals were exposed to aerosolized antigen bronchoprovocation which was performed by placing the rats in an enclosed plexiglass chamber (21 liters) and exposing the rats to aerosolized OVA (1%) for 30 min. The aerosolized OVA was produced by an ultrasonic nebulizer (DeVilbiss, Somerset, Pa., USA; Model Ultra-Neb 99) at a flow rate of approximately 8 liters/min. […]

rats = assay: Lung function assay (forced expiratory maneuvers after ovalbumin challenge); type: in vivo; settings: 5 hr before antigen challenge
Description: Two fasted Sprague Dawley rats were dosed orally at 10 mpk with compound in 0.4% HPMC vehicle. The dose volume was 5 ml/kg dose. Plasma was collected at 0.5, 1, 2, 3, 4, and 6 hr. Blood samples were collected with heparin, and the plasma was stored with EDTA.
Lung function was measured using a forced expiratory maneuvers technique. In this procedure, the rats were anesthetized and a tracheal catheter was inserted. The rats were placed inside a whole body plethysmograph that contained a breathing valve capable of separating inflations and deflations of the lungs. The lungs were then subject to forced inflation of the lungs to total lung capacity followed by rapid deflation to residual volume. Measurements of forced vital capacity and peak expiratory flow were used to measure the effects of antigen challenge and assess the inhibitory effects of the compound of formula I. The drug was admixed with lactose for intratracheal delivery and given directly into the trachea with a fine microsprayer 5 hr before the antigen challenge. Orally delivered compound was given in 0.4% methylcellulose vehicle 5 hr before the antigen challenge. Control animals received intratracheal lactose or methylcellulose, respectively. The antigen challenge consisted of aerosolized exposure for 30 min to 1% ovalbumin. Forced expiratory lung functions were measured 24 hr after the antigen (ovalbumin) exposure.

[1] = Physical properties of salts of Compound A (hygroscopicity, hydrate stability); type: physicochemical; settings: solid salt

| AUC (Rat PK assay) [ng·h/mL] | hygroscopicity [1] | Compound | inhibition of inflammatory cells (inflammatory cells; 0.02 mpk, intra-tracheal dosing, 5 h prior to antigen challenge, allergic BN rats) [%] | better inhibition of inflammatory cells via intra-trachea administration compared to oral administration (inflammatory cells; intra-trachea vs oral administration) [fold] | inhibition of forced vital capacity (FVC) (rats; 0.02 mpk it (intra-tracheal)) [%] | inhibition of forced vital capacity (FVC) (rats; 3 mpk po) [%] | stability of crystalline forms [1] |
| --- | --- | --- | --- | --- | --- | --- | --- |
| 350 | non-hygroscopic | CCOC(=O)[C@@H]1C[C@@H](NC(=O)C2CC2)CN1C(=O)c1nc(-c2ccc(OC)c3nc(C(F)(F)F)ccc23)oc1[C@H](C)N [xinafoate salt, xinafoate salt of 1-[[5-(1(S)-aminoethyl)-2-[8-methoxy-2-(trifluoromethyl)5-quinolyl]-4-oxazolyl]carbonyl]-4(R)-[(cyclopropyl-carbonyl)amino]-L-proline, ethyl ester] | 69 | 25 | 54 | 31 | – |
| – | – | fumarate | – | – | – | – | unstable hydrates |
